Laboratory results from publication PMC10667816, “A Cell‐Penetrant Peptide Disrupting the Transcription Factor CP2c Complexes Induces Cancer‐Specific Synthetic Lethality” (Advanced Science, 2023).
*1 amine or outer side, *2 acyl side, *3 side chain or, on linkers, in order; H or OH if unused. Where a SMILES comes first, the peptide text is derived from it. Side-chain parts run from the residue outwards. The star is where a group is joined. γGlu = O=C(O)[C@H](CCC(=O)[*:2])N[*:1]; Palmitoyl = CCCCCCCCCCCCCCCC(=O)*

What was measured:
Solubility of peptides = assay type: physicochemical
Text: The peptides listed in Table S3 (Supporting Information) were synthesized by either ANYGEN (Kwangju, Korea) or PepMic (Suzhou, China) and achieved purity of over 95%. These peptides were synthesized using the Solid‐phase method based on the Fmoc strategy, using an Applied Biosystems 431A peptide synthesizer on a 0.25‐mmol scale. To enhance the stability of ACP52C, saturated C16 palmitic acid, DHA, and E‐pal were utilized. These fatty acids were linked to the lysine (K) residue at the N‐terminal of ACP52C or within the ACP52 and iRGD region through a covalent bond formed between the εK NH3+ and αE or γE COO‐ groups. After synthesis, the final product was prepared through lyophilization and appeared as a white amorphous powder for both ACP52C and its derivatives. To confirm their quality, the purity and molecular weight of the final product were evaluated using amino acid analysis, analytical RP‐HPLC, and MALDI‐MS. […] FQI1, Sorafenib, and cisplatin were purchased from Sigma–Aldrich (SML0413, SML2653) or Selleckchem (S1166), respectively.
Figure S21. […]
A) A schematic representation depicting the structural diagrams, molecular weights, and minimum solubilities (in water or saline) of ACP52C and its derivatives. […] Tumor weight in the sacrificed mice after completion of drug administration schedule was expressed as means ± SE. […]

[1] = system: over 450 human kinases or disease‐relevant mutant variants; experiment: KINOMEscan screening; assay type: binding
[2] = system: CP2c transcriptional targets (FN1, OCT4, and SNAI2) in HepG2 cells; experiment: RT‐qPCR transcription inhibition of CP2c targets; assay type: cell-based, human; conditions: summary for both cell lines, 36 h after treatment; read-out: average TI50 (50% transcriptional inhibition) values of the three CP2c targets
Experimental: (§1) To quantify mRNA expression of the gene of interest, cells were harvested, and total cellular RNA was extracted using Qiazol reagent (Qiagen, 79306). Purified RNA was dissolved in Diethyl pyrocarbonate (DEPC) water. Reverse transcription was performed using a High‐Capacity cDNA reverse transcription kit (Toyobo, FSQ‐201) in the presence of 400 ng of total RNA and 10 pmol random hexamer. PCR was performed using rTaq Plus 5X PCR master mix (Elpis‐Biotech, EBT‐1319) and the SYBR green Master Mix Kit. Amplifications were performed using a Light cycler 1.5 real‐time PCR system.^[ [43] ^] The relative mRNA expression levels were determined using the 2(−ΔCt) method, with GAPDH transcript levels serving as an internal control. Errors were calculated from at least two independent experiments. Oligonucleotide primers used in RT–qPCR are listed in Table S2 (Supporting Information).

[3] = In vivo metabolic stability test by live imaging; parameters: species or system mouse; conditions: Hep3B CDX Balb/c nude mice, intravenous Cy5‐ACP52C 17 mg kg^−1, live imaging fluorescence over 24 h
Text: (1 picture or pasted object on this page, not shown here)
Scale bar represents 10 μm.

[4] = system: human stem cells (hMSCs and hESCs), mouse embryonic fibroblasts (MEFs), and human non‐transformed cell lines (BEAS‐2B and MCF10A); experiment: MTT growth inhibition in stem and non‐transformed cells; assay type: cell-based; conditions: concentration of 1 mM
Experimental: Various cell lines were treated with peptides, either alone or in combination with the CASP2 inhibitor (Ac‐VDVAD‐CHO; Enzo ALX‐260‐058‐M001) at various concentrations for 4 days. Cell viability was assessed on day 2 or day 4 using MTT (3‐(4,5‐dimethylthiazol‐2‐yl)‐2,5‐diphenyltetrazolium bromide; Sigma–Aldrich, M2128) assay. In brief, fresh cells were seeded in flat‐bottomed 96‐well tissue culture plates at appropriate concentrations for each cell line per well using complete culture medium. The cells were incubated in 100 µL of culture medium containing various concentration of chemicals or peptides at 37 °C for 0 to 96 h. A solution of MTT (5 mg mL^−1) was added to the culture medium, and the cells were further incubated at 37 °C for an additional 3 h. The MTT medium was then removed, and the formazan crystals were dissolved in DMSO (100 µL per well). The formazan concentration was measured spectrophotometrically at 490 nm using a Varioskan Flash Spectral Scanning Multimode Reader (Thermo Scientific Korea). Nonlinear regression curves for growth inhibition and GI50 values for each cell line were estimated from independent replicates using the Prism (version 6) software (GraphPad Software Inc.)

[5] = system: α‐globin mRNA expression in iMEL cells; experiment: Transcription inhibition of α‐globin mRNA expression; assay type: cell-based, murine; conditions: α‐globin (Hba-a2) mRNA, 36 h after ACP52C treatment, two independent biological replicates, read-out: TI50 (the source's name)
Experimental: as §1
Figure S13. The relationship between ACP52C-mediated growth inhibition and transcriptional
cell differentiation in vitro.
at 36 h after ACP52C treatment of various doses.
biological replicates. […] C)
expression in uMEL and iMEL c ells. D-G) Anticancer activity of ACP52C correlates with cellular
Modulation of GI50 values in cancer cells by
ACP52C treatment. […] Duplicated data
are expressed as means ± SD.

SMILES	concentration at which completely dissolved (Solubility of peptides)	interactions with kinases [1]	IC50 [2]	systemic metabolic stability in vivo (RL50, time for 50% retention of fluorescence) [3]	growth inhibition [4]	IC50 [5]
CCCCCCCCCCCCCCCC(=O)N[C@@H](CCC(=O)NCCCC[C@H](NC(=O)CNC(=O)CNC(=O)[C@@H]1CCCN1C(=O)[C@H](CCCNC(=N)N)NC(=O)[C@H](CCC(N)=O)NC(=O)[C@@H]1CCCN1C(=O)[C@H](Cc1ccc(O)cc1)NC(=O)[C@H](CC(N)=O)NC(C)=O)C(=O)NCC(=O)NCC(=O)N[C@@H](CS)C(=O)N[C@@H](CCCNC(=N)N)C(=O)NCC(=O)N[C@@H](CC(=O)O)C(=O)N[C@@H](CCCCN)C(=O)NCC(=O)N1CCC[C@H]1C(=O)N[C@@H](CC(=O)O)C(=O)N[C@@H](CS)C(N)=O)C(=O)O [ACP52CGK] (Ac-NYPQRPGGK([γGlu-Palmitoyl])GGCRGDKGPDC-NH2)	≥ 100000 µg/mL					
CC(=O)N[C@@H](CC(N)=O)C(=O)N[C@@H](Cc1ccc(O)cc1)C(=O)N1CCC[C@H]1C(=O)N[C@@H](CCC(N)=O)C(=O)N[C@@H](CCCNC(=N)N)C(=O)N1CCC[C@H]1C(=O)N[C@@H](CS)C(=O)N[C@@H](CCCNC(=N)N)C(=O)NCC(=O)N[C@@H](CC(=O)O)C(=O)N[C@@H](CCCCN)C(=O)NCC(=O)N1CCC[C@H]1C(=O)N[C@@H](CC(=O)O)C(=O)N[C@@H](CS)C(N)=O [ACP52C] (Ac-NYPQRPCRGDKGPDC-NH2)		did not exhibit interactions	35 to 40 µM	≈ 7.8 h	minimal to zero growth inhibition	~15 µM
